Reference: patent publication US20120289432A1, “PI3K MODULATORS, RHO KINASE MODULATORS AND METHODS OF IDENTIFYING AND USING SAME” (Corning Incorporated, priority 2009, published 2012)
Entries after “also recorded” stand apart in the source; their conditions may differ. Where two headings read alike, the source gives them in different places.

How the values were obtained:
Assay type in all cases: cell-based, human
A549 cells [1] = experiment: DMR modulation of marker-induced responses (two-step assay) in A549 cells; conditions: for modulation of the pinacidil response in A549 cells: compound pretreatment ~1 hr (10 micromolar), then pinacidil 10 micromolar; for modulation of the forskolin response (P-DMR) in A549 cells / modulation of the histamine response (early and late P-DMR) in A549 cells: inhibitor 10 micromolar; for modulation of the forskolin response (P-DMR) in A549 cells: forskolin 16 micromolar; for modulation of the histamine response (early and late P-DMR) in A549 cells: histamine 10 micromolar
Experimental: (§1) The index was generated after normalizing each marker-induced DMR signal in the presence of the inhibitor to its corresponding signal in the absence of the inhibitor. The percentage of modulation for each marker by the inhibitor was plotted as a function of the marker. As shown from left to right in a sequential order, the DMR events used for the basis of the modulation percentage calculation are: the N-DMR (50 min after stimulation) for pinacidil in A549, the P-DMR (50 min after stimulation) for forskolin in A549, the early P-DMR event (˜10 min after histamine stimulation) and the late P-DMR event (˜30 min after histamine stimulation) for histamine in A549, and the early P-DMR event (˜5 min after EGF stimulation) and the subsequent N-DMR event (˜30 min after EGF stimulation) for EGF in A431 cells. In all cases, the amplitudes of respective DMR events were used as the basis to calculate the percentages of modulation by the PI3K inhibitors. The same procedure was used to generate FIGS. 8 to 14.
(§2) Cells were typically grown using ˜1 to 2×10^4 cells per well at passage 3 to 15 suspended in 50 μl of the corresponding culture medium in the biosensor microplate, and were cultured at 37° C. under air/5% CO2 for ˜1 day. Except for A431 which underwent one day culture followed by one starvation in serum free medium, all other cells were directly assayed without starvation. The confluency for all cells at the time of assays was ˜95% to 100%.
(§3) For biosensor cellular assays, molecule solutions were made by diluting the stored concentrated solutions with the HBSS (1× Hanks balanced salt solution, plus 20 mM Hepes, pH 7.1), and transferred into a 384 well polypropylene molecule storage plate to prepare a molecule source plate. Both molecule and marker source plates were made separately when a two-step assay was performed. In parallel, the cells were washed twice with the HBSS and maintained in 30 μl of the HBSS to prepare a cell assay plate. Both the cell assay plate and the molecule and marker source plate(s) were then incubated in the hotel of the reader system. After ˜1 hr of incubation the baseline wavelengths of all biosensors in the cell assay microplate were recorded and normalized to zero. Afterwards, a 2 to 10 minute continuous recording was carried out to establish a baseline, and to ensure that the cells reached a steady state. Cellular responses were then triggered by pipetting 10 μl of the marker solutions into the cell assay plate using the on-board liquid handler.
(§4) To study the influence of molecules on a marker-induced response, a second stimulation with the marker at a fixed dose (typically at EC80 or EC100) was applied. The resonant wavelengths of all biosensors in the microplate were normalized again to establish a second baseline, right before the second stimulation. The two stimulations were usually separated by ˜1 hr.
(§5) All studies were carried out at a controlled temperature (28° C.). At least two independent sets of experiments, each with at least three replicates, were performed.

A431 cells = experiment: DMR modulation of the EGF-induced response in quiescent A431 cells
Experimental: as §1, §2, §3, §4, §5

A549 and A431 cells = experiment: DMR index against panels of markers across A549 and A431 cells, compared with LY294002; conditions: markers pinacidil, forskolin, histamine (A549), EGF (A431)
Experimental: as §1
Optical biosensors such as RWG biosensor measure dynamic mass redistribution (DMR) signals of cells upon stimulation. A DMR index contains the primary DMR profile or signal of a chemical acting on a panel of live cells, and the modulation index of the chemical against panels of markers across the panel of cells, a panel of markers for each cell line. […]

A549 and HepG2 cells = experiment: Biosensor index against panel of cells/markers (A549 and HepG2), compared with Y-27632
Source text: It is well known that many kinas inhibitors often display polypharmacology (i.e., many kinase inhibitors can modulate the activity of multi-targets in a cell). In addition, drugs including kinase inhibitors often display cell- or tissue-dependent phenotypic pharmacology, due to the many cellular factors including post-transcriptional modifications, compartmentalization of signaling cascades, alteration of key gene products in the pathway, receptor oligomerization, and constitutive receptor activity. […] Thus, the primary modes of action of a drug or drug candidate molecule, including ROCK inhibitors, are a sum of at least several types of pharmacology—polypharmacology, phenotypic pharmacology and systems (integrative) pharmacology. To correctly detect the phenotypic pharmacology of a ROCK inhibitor that acts via the inhibition of ROCK activity in live cell, one needs a panel of cells as well as panels of markers using the biosensor cellular assays. Thus, a ROCK inhibitor responsive cell line, A549, and a ROCK inhibitor unresponsive cell line, HepG2, were chosen as model systems. […]

HepG2 cells [2] = experiment: Label-free RWG biosensor DMR assay, agonism mode, HepG2 cells; conditions: primary profile
Experimental: as §2
(§6) Epic® beta version wavelength interrogation system (Corning Inc., Corning, N.Y.) was used for whole cell sensing. This system consists of a temperature-control unit, an optical detection unit, and an on-board liquid handling unit with robotics. The detection unit is centered on integrated fiber optics, and enables kinetic measures of cellular responses with a time interval of ˜15 sec.
For biosensor cellular assays, molecule solutions were made by diluting the stored concentrated solutions with the HBSS (1× Hanks balanced salt solution, plus 20 mM Hepes, pH 7.1), and transferred into a 384 well polypropylene molecule storage plate to prepare a molecule source plate. […] Both the cell assay plate and the molecule and marker source plate(s) were then incubated in the hotel of the reader system. After ˜1 hr of incubation the baseline wavelengths of all biosensors in the cell assay microplate were recorded and normalized to zero. […]

A549 cells [3] = experiment: Label-free RWG (Epic) biosensor DMR assay, agonism mode, A549 cells; conditions: for EC50: Homo sapiens; for maximal amplitude / maximal response of the N-DMR signal: n=4
Experimental: as §2, §6, §3, §5

HepG2 cells [4] = experiment: DMR modulation of the ODN2006-induced response in HepG2 cells; conditions: inhibitor 10 micromolar, ODN2006 500 nM
Experimental: as §2
as §3, with “Cellular responses were then triggered by pipetting 10 μl of the marker solutions into the cell assay plate using the on-board liquid handler.” left out

[5] = ~30 min after histamine stimulation
[6] = inhibitor 10 micromolar, EGF 32 nM

Row | Compound | modulation of the pinacidil response in A549 cells (A549 cells [1]) | modulation of the P-DMR event of the EGF response in A431 cells (A431 cells; [6]) | modulation of the forskolin response (P-DMR) in A549 cells (A549 cells [1]) | modulation of the histamine response (early and late P-DMR) in A549 cells (A549 cells [1]) | other results
1 | NCCNS(=O)(=O)c1cccc2cnccc12 [H-9] | complete or significant attenuation | – | – | – | –
2 | Cc1cc(C(C)Nc2ccccc2)c2nc(N3CCOCC3)cc(=O)n2c1 (racemic) [PI3Kβ inhibitor II, (+/−)-7-Methyl-2-(morpholin-4-yl)-9-(1-phenylaminoethyl)-pyridol[1,2-a]-pyrimidin-4-one] | – | significantly attenuated | – | – | modulation of the late P-DMR event of the histamine response in A549 cells (A549 cells [1]; [5]): slightly suppression
3 | CC1CNCCN1S(=O)(=O)c1cccc2cnccc12 (stereo not drawn) [H-7] | complete or significant attenuation | – | – | – | –
4 | Oc1cccc(-c2nc(N3CCOCC3)c3oc4ncccc4c3n2)c1 [PI-103] | little or not modulation | small attenuation | significant potentiation | significant potentiation | –
5 | O=c1cc(N2CCNCC2)oc2c(-c3ccccc3)cccc12 [LY303511] | – | – | – | – | type of DMR index compared with the PI3K inhibitor LY294002 (A549 and A431 cells): completely distinct type of DMR index
6 | O=S(=O)(c1cccc2cnccc12)N1CCCNCC1 [HA-1077] | complete or significant attenuation | – | – | – | –
7 | CDK1/2 inhibitor III | – | – | – | – | modulation of the biosensor signals of the markers in the panel (A549 and HepG2 cells; pinacidil, poly(IC), PMA, SLIGKV-amide, forskolin, histamine (A549), ODN2006 (HepG2)): attenuated the biosensor signals of most of markers; biosensor index compared with the Y-27632 biosensor index (A549 and HepG2 cells; primary profiles in A549 and HepG2 and modulation index against the panel of markers): quite distinct biosensor index; DMR (biosensor) signal of the compound in HepG2 cells (HepG2 cells [2]): small decaying signal; DMR (biosensor) signal of the compound in A549 cells (A549 cells [3]; primary profile): negative DMR signal
8 | Rho kinase inhibitor IV | complete or significant attenuation | – | – | – | –
9 | CNCCNS(=O)(=O)c1cccc2cnccc12 [H-8] | complete or significant attenuation | – | – | – | –
10 | COC[C@H]1OC(=O)c2coc3c2[C@@]1(C)C1=C(C3=O)[C@@H]2CCC(=O)[C@@]2(C)C[C@H]1OC(C)=O [wortmannin] | – | – | – | – | EC50 (A549 cells [3]; 50 min, N-DMR amplitudes ~50 min after stimulation, n=4, read-out: EC50 of the DMR signal): 0.0727 ± 0.0034 µM; maximal amplitude / maximal response of the N-DMR signal (A549 cells [3]): ~700 picometers
11 | O=C1NC(=O)C(=Cc2ccc3nccnc3c2)S1 [PI3Kγ inhibitor, 5-quinoxalin-6-ylmethylene-thiazolindine-2,4-dione] | little or not modulation | small attenuation | significant potentiation | significant potentiation | modulation of the late P-DMR event of the histamine response in A549 cells (A549 cells [1]; [5]): moderate potentiation
12 | O=S(=O)(NCCNC/C=C/c1ccc(Br)cc1)c1cccc2cnccc12 [H-89] | complete or significant attenuation | – | – | – | –
13 | CC(N/C(=N\C#N)Nc1ccncc1)C(C)(C)C (stereo not drawn) [pinacidil] | – | – | – | – | EC50 (A549 cells [3]; stimulation with pinacidil, read-out: EC50 of the biosensor signal): ~5 µM
14 | O=c1cc(N2CCOCC2)oc2c(-c3ccccc3)cccc12 [LY294002] | – | – | – | – | modulation of the pinacidil response (N-DMR) (A549 cells [1]; N-DMR 50 min after stimulation, marker signal with inhibitor normalized to signal without, FIG. 7C): −9%; modulation of the forskolin response (P-DMR) (A549 cells [1]; P-DMR 50 min after stimulation, FIG. 7C): +33%; modulation of the histamine response, early P-DMR (A549 cells [1]; ~10 min after histamine stimulation, FIG. 7C): +41%; modulation of the histamine response, late P-DMR (A549 cells [1]; ~30 min after histamine stimulation, FIG. 7C): +90%; EC50 (A549 cells [3]; 50 min, N-DMR amplitudes ~50 min after stimulation, n=4, read-out: EC50 of the N-DMR signal): 14.7 ± 1.5 µM; maximal amplitude / maximal response of the N-DMR signal (A549 cells [3]): ~400 picometers
15 | O=c1cc(N2CCOCC2)oc2c1ccc1ccccc12 [DNA-PK inhibitor II, 2-(Morpholin-4-yl)-benzo[h]chromen-4-one] | little or not modulation | small attenuation | significant potentiation | significant potentiation | –
16 | O=c1c(O)c(-c2ccc(O)c(O)c2)oc2cc(O)cc(O)c12 [quercetin] | little or not modulation | small attenuation | potentiated; also recorded: significant potentiation | potentiated; also recorded: significant potentiation | modulation index score, forskolin (A549 cells [1]; score +1 per 10% modulation): 2; modulation index score, histamine early P-DMR (A549 cells [1]; score +1 per 10% modulation): 4; modulation index score, histamine late P-DMR (A549 cells [1]; score +1 per 10% modulation): 9; modulation index score, pinacidil (A549 cells [1]; score +1 per 10% positive modulation, opposite for negative): −1; modulation of the ODN2006 DMR signal in HepG2 cells (HepG2 cells [4]): slightly attenuated; modulation of the N-DMR event of the EGF response in A431 cells (A431 cells; [6]): attenuated; modulation index score, EGF N-DMR (A431 cells; score +1 per 10% modulation): −5; modulation index score, EGF P-DMR (A431 cells; score +1 per 10% modulation): 0
17 | Oc1ccc(C=Cc2cc(O)cc(O)c2)cc1 [resveratrol] | little or not modulation | small attenuation | significant potentiation | significant potentiation | –
18 | c1ccc2c(-c3ccncc3)c[nH]c2c1 [Rho kinase inhibitor III Rockout] | complete or significant attenuation | – | – | – | –
19 | NC(N)=NCCNS(=O)(=O)c1cccc2cnccc12 [HA-1004] | complete or significant attenuation | – | – | – | –
20 | CC(=O)c1ccc(N2CCOCC2)cc1O [DNA-PK inhibitor III, 1-(2-Hydroxy-4-morpholin-4-yl-phenyl)ethanone] | little or not modulation | small attenuation | significant potentiation | significant potentiation | –
